These results are taken from patent publication US10487058B2, “Cyclopropyl unsaturated quinoline compound used as leukotriene receptor antagonist and applications thereof” (Guangdong Moltech Pharma Co. Ltd, priority 2015, dated 2019).

The test system of one data set is guinea pig asthma models. Description: Anti-asthmatic effect of CS-0090-1 on guinea pig asthma models (histamine/acetylcholine atomization). The data set is classed as in vivo.
The test system of data set [1] is histamine and acetylcholine induced asthma guinea pigs. Description: Anti-asthmatic effect of CS-0090-2 on histamine and acetylcholine induced asthma guinea pigs. The data set is classed as in vivo, guinea pig.
For data set [2] the test system is unchanged. As to the kind of experiment: Anti-asthmatic effect of CS-0090-4 on histamine and acetylcholine induced asthma guinea pigs. Type of data set: in vivo, guinea pig.
Experimental: 0.2 g choline and 0.01 g histamine were weighed and put into beakers respectively, and then respectively each beaker were added with 10 ml distilled water and blended to homogeneity.
The healthy guinea pigs with body weight of 180 to 220 g were taken and placed in a closed glass bell jar one by one firstly; after the guinea pigs became quiet, an atomization apparatus was started to spray an asthma-induced medical liquid (a solution of 2% acetylcholine chloride and 0.1% histamine phosphate mixed in equal volume) until the guinea pigs tumbled, then the pulverization was stopped, and the asthma latent period (time period from the beginning of pulverization to onset of asthma and dyspnea, till convulsions and tumble) was observed, and qualified animals having a asthma latent period ≤120 s were screened.
The qualified guinea pigs screened were randomly divided into four groups, which were a high-dosage group, a median-dosage group, a low-dosage group, and a positive control group. The guinea pigs in each group were subjected to oral gavage administration continuously for 7 days with a dosage of 1 ml/100 g. The induced asthma latent period was determined in 1 h after administration on the last day.
The next data set relates to KM mice. Particulars: oral gavage three times in one day, observed 7 days.
The mark [3] stands for this setting: 3 mg·kg^−1 group, self-control baseline.

The structures appear in SMILES notation.

Turning to `CC(C)(O)c1ccccc1CC[C@@H](SCC1(CC(=O)O)CC1)c1cccc(/C=C/c2ccc3ccc(Cl)cc3n2)c1` [Montelukast], the “Induced asthma latent period before administration” value with guinea pig asthma models (setting [3]) came out at 48.17 ± 4.62 s. The “Induced asthma latent period after administration” value in the data set with guinea pig asthma models (3 mg·kg^−1 oral gavage once a day for 7 days, 1 h after last dose, capped at 6 min) came to 63.00 ± 7.13 s. For the same compound, the “Induced asthma latent period (s) within 6 min Before administration” value in data set [1] (setting [3]) turned out to be 48.2 ± 4.6 s. Besides, in data set [1] (3 mg·kg^−1 oral gavage 7 days, 1 h after last dose, capped at 360 s), the “Induced asthma latent period (s) within 6 min After administration” value is given as 59.8 ± 7.1 s. Further, the “Asthma latent period before administration” value in data set [2] (setting [3]) is 48.17 ± 4.62. In addition, the “Asthma latent period after administration” value in data set [2] (3 mg·kg^−1 oral gavage 7 days, 1 h after last dose) is recorded as 59.83 ± 7.08. Besides, the maximum dosage in the data set on KM mice was 2280 mg/kg.
